Laboratory results taken from patent EP0377642B1, “HERBICIDES FOR WEED CONTROL IN RICE” (E.I. DU PONT DE NEMOURS AND COMPANY, priority 1987, dated 1989).

Legend:
Assay in all cases: Herbicidal efficacy alone and with 2,4-D in Malaysia, applied 30 days after seeding (Table 8)
Type in all cases: in vivo
Conditions in all cases: 22 days after treatment
[1] = test system: Sphenoclea zeylanica
Text: (§1) Methyl 2-[[[[(4-methoxy-6-methyl-1,3,5-triazin-2-yl)amino]carbonyl]amino]sulfonyl]benzoate (Compound 1) and mixtures thereof with other compounds were applied as a spray (using a hand sprayer) to rice (either transplanted or direct seeded) in several rice growing areas in Southeast Asia and in the U.S. Tables 1-28 contain the results of these tests and clearly exemplify the utility of this invention. The details of each application are included in the appropriate table. [drawing 2]

[2] = test system: Monochoria vaginalis
Text: as §1

[3] = test system: FIMBRISTYLIS MILIACEA
Text: as §1

[4] = test system: Marsilea crenata
Text: as §1

SMILES: COC(=O)c1ccccc1S(=O)(=O)NC(=O)Nc1nc(C)nc(OC)n1 [Compound 1, Methyl 2-[[[[(4-methoxy-6-methyl-1,3,5-triazin-2-yl)amino]carbonyl]amino]sulfonyl]benzoate]
- % CONTROL SZ ([1]; 1 GAI/HA): 0%
- % CONTROL SZ ([1]; 2 GAI/HA): 100%
- % CONTROL SZ ([1]; 3 GAI/HA): 100%
- % CONTROL SZ ([1]; 4 GAI/HA): 100%
- % CONTROL SZ ([1]; 5 GAI/HA): 100%
- % CONTROL MV ([2]; 1 GAI/HA): 95%
- % CONTROL MV ([2]; 2 GAI/HA): 95%
- % CONTROL MV ([2]; 3 GAI/HA): 100%
- % CONTROL MV ([2]; 4 GAI/HA): 100%
- % CONTROL MV ([2]; 5 GAI/HA): 100%
- % CONTROL FM ([3]; 1 GAI/HA): 0%
- % CONTROL FM ([3]; 2 GAI/HA): 100%
- % CONTROL FM ([3]; 3 GAI/HA): 50%
- % CONTROL FM ([3]; 4 GAI/HA): 50%
- % CONTROL FM ([3]; 5 GAI/HA): 20%
- % CONTROL MC ([4]; 1 GAI/HA): 20%
- % CONTROL MC ([4]; 2 GAI/HA): 95%
- % CONTROL MC ([4]; 3 GAI/HA): 100%
- % CONTROL MC ([4]; 4 GAI/HA): 95%
- % CONTROL MC ([4]; 5 GAI/HA): 100%
